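GI50 is the concentration that inhibits growth by half. The concentration for full growth arrest is given as TGI.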
What was measured:
Assay in all cases: DTP human tumour cell line panel, 384-well format; in the data active means GI50 below about 0.43 µM; inactive means the rest
786-0 renal = tested on: 786-0 renal
A498 renal = tested on: A498 renal
A549 NSCLC = tested on: A549 NSCLC
ACHN renal = tested on: ACHN renal
BT-549 breast = tested on: BT-549 breast
CAKI-1 renal = tested on: CAKI-1 renal
CCRF-CEM leukemia = tested on: CCRF-CEM leukemia
DU-145 prostate = tested on: DU-145 prostate
EKVX NSCLC = tested on: EKVX NSCLC
HCT-116 colon = tested on: HCT-116 colon
HCT-15 colon = tested on: HCT-15 colon
HL-60(TB) leukemia = tested on: HL-60(TB) leukemia
HOP-62 NSCLC = tested on: HOP-62 NSCLC
HOP-92 NSCLC = tested on: HOP-92 NSCLC
HS 578T breast = tested on: HS 578T breast
HT29 colon = tested on: HT29 colon
IGROV1 ovarian = tested on: IGROV1 ovarian
K-562 leukemia = tested on: K-562 leukemia
KM12 colon = tested on: KM12 colon
LOX IMVI melanoma = tested on: LOX IMVI melanoma
M14 melanoma = tested on: M14 melanoma
MALME-3M melanoma = tested on: MALME-3M melanoma
MCF7 breast = tested on: MCF7 breast
MDA-MB-231 breast = tested on: MDA-MB-231 breast
MDA-MB-435 melanoma = tested on: MDA-MB-435 melanoma
MDA-MB-468 breast = tested on: MDA-MB-468 breast
MOLT-4 leukemia = tested on: MOLT-4 leukemia
NCI-H226 lung = tested on: NCI-H226 lung
NCI-H23 lung = tested on: NCI-H23 lung
NCI-H322M lung = tested on: NCI-H322M lung
NCI-H522 lung = tested on: NCI-H522 lung
NCI/ADR-RES ovarian = tested on: NCI/ADR-RES ovarian
OVCAR-3 ovarian = tested on: OVCAR-3 ovarian
OVCAR-4 ovarian = tested on: OVCAR-4 ovarian
OVCAR-5 ovarian = tested on: OVCAR-5 ovarian
OVCAR-8 ovarian = tested on: OVCAR-8 ovarian
PC-3 prostate = tested on: PC-3 prostate
RPMI-8226 leukemia = tested on: RPMI-8226 leukemia
RXF 393 renal = tested on: RXF 393 renal
SF-268 CNS = tested on: SF-268 CNS
SF-295 CNS = tested on: SF-295 CNS
SF-539 CNS = tested on: SF-539 CNS
SK-MEL-2 melanoma = tested on: SK-MEL-2 melanoma
SK-MEL-28 melanoma = tested on: SK-MEL-28 melanoma
SK-OV-3 ovarian = tested on: SK-OV-3 ovarian
SN12C renal = tested on: SN12C renal
SNB-19 CNS = tested on: SNB-19 CNS
SNB-75 CNS = tested on: SNB-75 CNS
SW-620 colon = tested on: SW-620 colon
T-47D breast = tested on: T-47D breast
TK-10 renal = tested on: TK-10 renal
U251 glioblastoma = tested on: U251 glioblastoma
UACC-257 melanoma = tested on: UACC-257 melanoma
UACC-62 melanoma = tested on: UACC-62 melanoma
UO-31 renal = tested on: UO-31 renal

CC(=O)O[C@]1(C(C)=O)CC[C@H]2[C@@H]3C=C(C)C4=CC(=O)CC[C@]4(C)[C@H]3CC[C@@]21C
22.5 µM: TGI (HL-60(TB) leukemia)
> 100 µM: TGI (786-0 renal) | TGI (A498 renal) | TGI (A549 NSCLC) | TGI (ACHN renal) | TGI (BT-549 breast) | TGI (CAKI-1 renal) | TGI (DU-145 prostate) | TGI (EKVX NSCLC) | TGI (HCT-116 colon) | TGI (HCT-15 colon) | TGI (HOP-62 NSCLC) | TGI (HOP-92 NSCLC) | TGI (HS 578T breast) | TGI (HT29 colon) | TGI (IGROV1 ovarian) | TGI (KM12 colon) | TGI (LOX IMVI melanoma) | TGI (M14 melanoma) | TGI (MALME-3M melanoma) | TGI (MCF7 breast) | TGI (MDA-MB-231 breast) | TGI (MDA-MB-435 melanoma) | TGI (MDA-MB-468 breast) | TGI (NCI-H226 lung) | TGI (NCI-H23 lung) | TGI (NCI-H322M lung) | TGI (NCI-H522 lung) | TGI (NCI/ADR-RES ovarian) | TGI (OVCAR-3 ovarian) | TGI (OVCAR-4 ovarian) | TGI (OVCAR-5 ovarian) | TGI (OVCAR-8 ovarian) | TGI (PC-3 prostate) | TGI (RXF 393 renal) | TGI (SF-268 CNS) | TGI (SF-295 CNS) | TGI (SF-539 CNS) | TGI (SK-MEL-2 melanoma) | TGI (SK-MEL-28 melanoma) | TGI (SK-OV-3 ovarian) | TGI (SN12C renal) | TGI (SNB-19 CNS) | TGI (SNB-75 CNS) | TGI (SW-620 colon) | TGI (T-47D breast) | TGI (TK-10 renal) | TGI (U251 glioblastoma) | TGI (UACC-257 melanoma) | TGI (UACC-62 melanoma) | TGI (UO-31 renal)
29.3 µM: TGI (MOLT-4 leukemia)
28.1 µM: TGI (RPMI-8226 leukemia)
inactive: GI50 ([…]-0 renal) > 100 µM | GI50 (A498 renal) > 100 µM | GI50 (A549 NSCLC) > 100 µM | GI50 (ACHN renal) > 100 µM | GI50 (BT-549 breast) > 100 µM | GI50 (CAKI-1 renal) > 100 µM | GI50 (CCRF-CEM leukemia) 18.6 µM | GI50 (DU-145 prostate) > 100 µM | GI50 (EKVX NSCLC) > 100 µM | GI50 (HCT-116 colon) 70.7 µM | GI50 (HCT-15 colon) > 100 µM | GI50 (HL-60(TB) leukemia) 10.5 µM | GI50 (HOP-62 NSCLC) > 100 µM | GI50 (HOP-92 NSCLC) > 100 µM | GI50 (HS 578T breast) > 100 µM | GI50 (HT29 colon) > 100 µM | GI50 (IGROV1 ovarian) > 100 µM | GI50 (K-562 leukemia) 20.5 µM | GI50 (KM12 colon) > 100 µM | GI50 (LOX IMVI melanoma) > 100 µM | GI50 (M14 melanoma) 76.3 µM | GI50 (MALME-3M melanoma) > 100 µM | GI50 (MCF7 breast) > 100 µM | GI50 (MDA-MB-231 breast) > 100 µM | GI50 (MDA-MB-435 melanoma) > 100 µM | GI50 (MDA-MB-468 breast) 44.1 µM | GI50 (MOLT-4 leukemia) 14.1 µM | GI50 (NCI-H226 lung) > 100 µM | GI50 (NCI-H23 lung) > 100 µM | GI50 (NCI-H322M lung) > 100 µM | GI50 (NCI-H522 lung) > 100 µM | GI50 (NCI/ADR-RES ovarian) > 100 µM | GI50 (OVCAR-3 ovarian) > 100 µM | GI50 (OVCAR-4 ovarian) > 100 µM | GI50 (OVCAR-5 ovarian) > 100 µM | GI50 (OVCAR-8 ovarian) > 100 µM | GI50 (PC-3 prostate) 74.7 µM | GI50 (RPMI-8226 leukemia) 11.5 µM | GI50 (RXF 393 renal) > 100 µM | GI50 (SF-268 CNS) > 100 µM | GI50 (SF-295 CNS) > 100 µM | GI50 (SF-539 CNS) > 100 µM | GI50 (SK-MEL-2 melanoma) > 100 µM | GI50 (SK-MEL-28 melanoma) > 100 µM | GI50 (SK-OV-3 ovarian) > 100 µM | GI50 (SN12C renal) > 100 µM | GI50 (SNB-19 CNS) > 100 µM | GI50 (SNB-75 CNS) > 100 µM | GI50 (SW-620 colon) > 100 µM | GI50 (T-47D breast) > 100 µM | GI50 (TK-10 renal) > 100 µM | GI50 (U251 glioblastoma) > 100 µM | GI50 (UACC-257 melanoma) > 100 µM | GI50 (UACC-62 melanoma) > 100 µM | GI50 (UO-31 renal) > 100 µM
32.9 µM: TGI (CCRF-CEM leukemia)
41.7 µM: TGI (K-562 leukemia)

Reference: PubChem BioAssay (NCI)
